Results reported in patent publication US7816350B2, “Substituted [1,2,3] triazolo[4,5-D]pyrimidines as cdk inhibitors” (Institute of Experimental Botany ASCR, priority 2002, dated 2010).

Assays:
IκB-α kinase = IκB-α kinase inhibitory activity, in vitro kinase assay; assay type: biochemical
p34^cdc2/cyclin B (CDC2) = target: T1, p34^cdc2/cyclin B (CDC2) (Homo sapiens, UniProt P06493); experiment: CDK inhibition assay, p34cdc2/cyclin B kinase, histone H1 phosphorylation; assay type: biochemical
T1 construct: made in house; host or cells: Sf9 insect cells (baculovirus co-infection)
T1 sequence (P06493 whole entry, species assumed): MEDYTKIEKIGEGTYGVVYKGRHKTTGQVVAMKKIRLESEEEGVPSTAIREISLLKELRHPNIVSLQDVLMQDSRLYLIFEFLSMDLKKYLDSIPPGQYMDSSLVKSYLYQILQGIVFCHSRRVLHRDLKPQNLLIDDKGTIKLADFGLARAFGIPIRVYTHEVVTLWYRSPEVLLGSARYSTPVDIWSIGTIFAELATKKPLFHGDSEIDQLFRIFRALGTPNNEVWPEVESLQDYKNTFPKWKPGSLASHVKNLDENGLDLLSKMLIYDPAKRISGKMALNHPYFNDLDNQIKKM
T1 sequence (P14635 whole entry partner, species assumed): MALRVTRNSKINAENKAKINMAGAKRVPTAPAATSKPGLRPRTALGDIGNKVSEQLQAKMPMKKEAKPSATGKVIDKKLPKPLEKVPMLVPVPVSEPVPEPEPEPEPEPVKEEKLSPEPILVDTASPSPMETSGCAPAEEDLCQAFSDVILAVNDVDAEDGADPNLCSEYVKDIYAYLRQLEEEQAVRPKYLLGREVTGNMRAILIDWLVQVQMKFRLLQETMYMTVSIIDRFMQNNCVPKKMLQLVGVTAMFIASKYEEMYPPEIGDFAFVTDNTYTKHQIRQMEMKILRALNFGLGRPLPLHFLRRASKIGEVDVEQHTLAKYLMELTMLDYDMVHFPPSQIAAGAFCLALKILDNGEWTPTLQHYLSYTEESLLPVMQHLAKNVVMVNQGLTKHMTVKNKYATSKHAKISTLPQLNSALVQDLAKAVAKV
Procedure: Cyclin-dependent kinases (p34^cdc2, p33^cdk2) and cyclins (cyclin B, E) are produced in Sf9 insect cells coinfected with appropriate baculoviral constructs. The cells are harvested 68-72 hrs post infection in lysis buffer for 30 min on ice and the soluble fraction is recovered by centrifugation at 14.000 g for 10 min. The protein extract is stored at −80° C.
Lysis buffer: 50 mM Tris pH 7.4, 150 mM NaCl, 5 mM EDTA, 20 mM NaF, 1% Tween, 1 mM DTT, 0.1 mM PMSF, leupeptine, aprotonine.
To carry out experiments on kinetics under linear conditions, the final point test system for kinase activity measurement is used. The kinase is added to reaction mixture in such a way as to obtain linear activity with respect to the concentration of enzyme and with respect to time.
The p34^cdc2 and p33^cdk2 kinase inhibition determination involves the use of 1 mg/ml histone H1 (Sigma, type III-S) in the presence of 15 μM [γ-^32P]ATP ([…]) (Amersham) in a final volume of 20 μl. Kinase activity is determined at 30° C. in the kinase buffer.
Tested compounds are usually dissolved to 100 mM solutions in DMSO, final concentration of DMSO in reaction mixture never exceeds 1%. The controls contain suitable dilutions of DMSO.
After 10 min, addition 3×SDS sample buffer stops the incubations. Phosphorylated proteins are separated electrophoretically using 12.5% SDS polyacrylamide gel. The measurement of kinase activity is done using digital image analysis.
The kinase activity is expressed as a percentage of maximum activity, the apparent inhibition constants are determined by graphic analysis (FIG. 1).
Kinase buffer: 50 mM Hepes pH 7.4, 10 mM MgCl2, 5 mM EGTA, 10 mM 2-glycerolphosphate, 1 mM NaF, 1 mM DTT

β-adrenergic receptors = experiment: Modulation of the activity of β-adrenergic receptors, isoproterenol-induced cAMP synthesis in C6 glioma; assay type: cell-based; details: cAMP synthesis induced by 5 μM (−) isoproterenol, rat C6 glioma
Procedure: Rat C6 glioma (ATCC N^o CCL107) was cultivated in monolayer in serum-free chemically defined medium containing Ham's F10/minimal essential medium (1:1 vol/vol), 2 mM L-glutamine, 1% (vol/vol) minimal essential medium vitamins (100×), 1% (vol/vol) minimal essential medium nonessential amino acids (100×), 100 U/ml penicillin, 100 μg/ml streptomycin and 30 nM sodium selenite. Incubation was at 37° C. in a humidified atmosphere. Assays were performed in the logarithmic growth phase at a density of 2.5×10^5 cells/cm^2. Intracellular cAMP synthesis was induced by addition of 5 μM (−) isoproterenol. After 30 min incubation at 37° C. the medium was removed and the cellular amount of cAMP determined using the cAMP-enzyme immunoassay kit of Amersham. The I50 is determined from a dose-response curve in duplicate (Table 7). The effect of seven 8-azapurine-analogs was measured after simultaneous addition with isoproterenol.
As P2Y1-like and A2 purinergic receptors, negatively and positively coupled to adenylate cyclase respectively, are present on rat C6 glioma it has to be determined if the modulation of the synthesis of cAMP is due to inhibition of the activation of β-adrenergic receptors by isoproterenol are due to activation of purinergic receptors.

K-562 = experiment: In vitro cytotoxic activity, MTT assay, K-562; assay type: cell-based; details: Homo sapiens, K562, 72 hours
MCF7 = experiment: In vitro cytotoxic activity, MTT assay, MCF7; assay type: cell-based; details: Homo sapiens, 72 hours
Source text: One of the parameters used, as the basis for colorimetric assays is the metabolic activity of viable cells. For example, a microtiter assay, which uses the tetrazolium salt MTT, is now widely used to quantitate cell proliferation and cytotoxicity. For instance, this assay is used in drug screening programs and in chemosensitivity testing. Because only metabolically active cells cleave tetrazolium salts, these assays detect viable cells exclusively. In the case of MTT assay, yellow soluble tetrazolium salt is reduced to coloured water-insoluble formazan salt. After it is solubilized, the formazan formed can easily and rapidly be quantified in a conventional ELISA plate reader at 570 nm (maximum absorbance). The quantity of reduced formazan corresponds to number of vital cells in the culture.
Human T-lymphoblastic leukemia cell line CEM; promyelocytic HL-60 and monocytic U937 leukemias; breast carcinoma cell lines MCF-7, BT549, MDA-MB-231; glioblastoma U87MG cells; cervical carcinoma cells HELA; sarcoma cells U2OS and Saos2; hepatocellular carcinoma HepG2; mouse immortalized bone marrow macrophages B2.4 and B10A.4; P388D1 and L1210 leukemia; B16 and B16F10 melanomas were used for routine screening of compounds. The cells were maintained in Nunc/Corning 80 cm^2 plastic tissue culture flasks and cultured in cell culture medium (DMEM with 5 g/l glucose, 2 mM glutamine, 100 U/ml penicillin, 100 μg/ml streptomycin, 10% fetal calf serum and sodium bicarbonate).
The cell suspensions that were prepared and diluted according to the particular cell type and the expected target cell density (2.500-30.000 cells per well based on cell growth characteristics) were added by pipette (80 μl) into 96/well microtiter plates. Inoculates were allowed a pre-incubation period of 24 hours at 37° C. and 5% CO2 for stabilisation. Four-fold dilutions of the intended test concentration were added at time zero in 20 μl aliquots to the microtiter plate wells. Usually, test compound was evaluated at six 4-fold dilutions. In routine testing, the highest well concentration was 266.7 μM, but it can be the matter of change dependent on the agent. All drug concentrations were examined in duplicates. Incubations of cells with the test compounds lasted for 72 hours at 37° C., in 5% CO2 atmosphere and 100% humidity. At the end of incubation period, the cells were assayed by using the MTT. Ten microliters of the MTT stock solution were pipetted into each well and incubated further for 1-4 hours. After this incubation period, formazan was solubilized by addition of 100 μl/well of 10% SDS in water (pH=5.5) followed by further incubation at 37° C. overnight. The optical density (OD) was measured at 540 nm with the Labsystem iEMS Reader MF (UK). The tumour cell survival (TCS) was calculated using the following equation: TCS=(ODdrug exposed well/mean ODcontrol wells)×100%. The IC50 value, the drug concentration lethal to 50% of the tumour cells, was calculated from the obtained dose response curves (FIG. 2).

melting point [°C] | IC50 (IκB-α kinase) [µM] | IC50 (p34^cdc2/cyclin B (CDC2)) [µM] | SMILES | also measured
122 to 124 |  |  | Clc1nc(NCc2ccccc2)c2[nH]nnc2n1 [Example 18, 2-Chloro-6-benzylamino-8-azapurine] | 
119 to 124 |  |  | NCCCNc1nc(NCc2ccccc2)c2[nH]nnc2n1 [Example 20, 2-(3-Aminopropylamino)-6-benzylamino-8-azapurine] | 
133 to 139 |  |  | Cc1nc(NCc2ccccc2)c2nnn(C(C)C)c2n1 [Example 15, 2-methyl-6-benzylamino-9-isopropyl-8-azapurine] | 
120 to 123 |  |  | CC(C)n1nnc2c(NCc3ccccc3O)nc(N[C@H]3CC[C@H](N)CC3)nc21 [Example 12, 2-(trans-4-Aminocyclohexylamino)-6-(2-hydroxybenzylamino)-9-isopropyl-8-azapurine] | 

The remaining lines, values behind:

SMILES | melting point [°C] | IC50 (IκB-α kinase) [µM] | IC50 (p34^cdc2/cyclin B (CDC2)) [µM] | also measured
CC[C@H](CO)Nc1nc(NCc2cccc(O)c2)c2nnn(C(C)C)c2n1 [2-R-(1-hydroxymethyl)propylamino-6-(3-hydroxybenzyl)amino-9-isopropyl-8-azapurine] |  | 85 | 10 | Effect, fold activation (β-adrenergic receptors): 1.3-fold activation
CC(C)n1nnc2c(Nc3cccc(Cl)c3)nc(NC3CCC(N)CC3)nc21 (stereo not shown) [2-(4-aminocyclohexyl)amino-6-(3-chlorophenyl)amino-9-isopropyl-8-azapurine] | 221 to 223 | 60 | 6.3 | IC50 (K-562): 7.4 µM; IC50 (MCF7): 6.1 µM
CC(C)n1nnc2c(NCc3ccccc3)nc(NCCN)nc21 |  | > 100 | > 100 | Effect, fold activation (β-adrenergic receptors): 1.1-fold activation
CC[C@H](CO)Nc1nc(NCc2ccc(O)cc2)c2[nH]nc(C(C)C)c2n1 |  |  |  | Effect, fold activation (β-adrenergic receptors): 1.2-fold activation
CC(C)C(CO)Nc1nc(Nc2cccc(Cl)c2)c2nnn(C(C)C)c2n1 (stereo not shown) [Example 10, 2-(1-Hydroxymethyl-2-methylpropylamino)-6-(3-chloroanilino)-9-isopropyl-8-azapurine] | 160 to 163 |  |  | 
CC(C)C(CO)Nc1nc(NCc2cccc(O)c2)c2nnn(C(C)C)c2n1 (stereo not shown) [Example 9, 2-(1-Hydroxymethyl-2-methylpropylamino)-6-(3-hydroxybenzylamino)-9-isopropyl-8-azapurine] | 150 to 152 |  |  | 
CC(C)n1nnc2c(NCc3ccccc3)nc(NCCCN)nc21 |  | > 100 | > 100 | Effect (β-adrenergic receptors; result in words): inhibition; IC50 (β-adrenergic receptors; read-out: I50): 31 ± 2 µM
